Data: patent publication US20130029928A1 (priority 2010, published 2013)
“And” between values parts separate entries of the source, which are not always exact repeats. Equal values may be shown once. Read-outs that look alike come from different tables or passages of the source. Marks after values point to notes of the source that are not given here.

Key:
HT1080 = test: ATP depletion cytotoxicity assay 48 hr; format: cell-based; conditions: Homo sapiens, HT-1080, Study CXR0798, read-out: IC50 1
Experimental: (§6) The SRB assay was performed according to the method specified by the NIC/NIH. […] Assay replicates were independent in time and up to 4 replicates were performed per cell line.

Plasma protein binding = format: in vitro ADME
[1] = tested on: Panc-1 (pancreatic tumour) cells; test: Western blot of ER stress-regulated proteins in Panc-1 cells; format: cell-based, human; conditions: 500 μM, 4 h to 4 days
Experimental: Western blots were performed on the protein extracts (equivalent protein concentrations were loaded onto the gels). The antibodies used were for known ER stress regulated protein Bip/GRP78, CHOP/DDIT3, IRE1alpha, TRB3 (Tribbles3), cleaved PARP (marker of apoptosis), and tubulin (loading control) (see FIG. 71).

Canine Hepatocytes = test: ATP depletion cytotoxicity assay 48 hr; format: cell-based; conditions: Canis lupus familiaris, Hepatocyte, Study CXR0798, read-out: IC50 1
Experimental: as §6

p21^WAF1 = test: p21WAF1 transcription reporter (hCG excretion) in A2780/p21WAF1 cells; format: cell-based, human; conditions: 24 hrs exposure; β-hCG excretion
U2OS = test: ATP depletion cytotoxicity assay 48 hr; format: cell-based; conditions: Homo sapiens, Study CXR0798, read-out: IC50 1
Experimental: as §6

CaCo-2 = test: SRB cytotoxicity assay 48 hr; format: cell-based, human; conditions: read-out: IC50 Values After 48 Hrs Exposure
Experimental: as §6

[2] = tested on: patients with advanced cancer; test: Phase I study CXR1002-001: anti-tumour response; format: in vivo, human
H (chondrosarcoma) = test: ATP depletion cytotoxicity assay 48 hr; conditions: H
Experimental: (§7) Assay replicates were independent in time and up to 4 replicates were performed per cell line.
(§8) Cells were plated at the optimal plating density for that cell line in 96-well plates and allowed to attach overnight. The next day, the medium was removed and replaced with fresh medium containing the dose ranges of test items. […] There were 3 replicates for each test item concentration.
Cells were plated at the optimal plating density for that cell line in 96-well plates and allowed to attach overnight. The next day, cells were pre-treated with the inhibitors UO126 or LY294002 (see Tables 18 & 20) for 2 hrs, the medium was removed and replaced with fresh medium containing the appropriate dose of the test item. […] Cells that were to be treated with DPQ received no pre-treatment. […] There were 3 replicates for each test item concentration.

MCF-7 = test: SRB cytotoxicity assay 48 hr; format: cell-based, human; conditions: read-out: IC50 Values After 48 Hrs Exposure
Experimental: as §6

PC3 = test: SRB cytotoxicity assay 48 hr; format: cell-based, human; conditions: read-out: IC50 Values After 48 Hrs Exposure
Experimental: as §6

OUMS-27 = test: ATP depletion cytotoxicity assay 48 hr; format: cell-based, human
Experimental: (§9) Following exposure to Test Items, the CellTitre-Glo Luminescent Cell Viability Assay to measure ATP content was performed according to the manufacturer's detailed instructions (Promega Corporation, Technical Bulletin No. 288, and Cell notes, Issue 10, 2004).
Cells were plated at the optimal plating density for that cell line in 96-well plates and allowed to attach overnight. […] Cells were exposed to these compounds in Roswell Park Memorial Institute (RPMI) medium containing 10% Foetal Calf Serum (FCS) and 2 mM Glutamine at 37° C. and 5% CO2 for 48 hours. There were 3 replicates for each test item concentration.
(§10) Following exposure to Test Items, the CellTitre-Glo Luminescent Cell Viability Assay to measure ATP content will be performed according to the manufacturer's detailed instructions (Promega Corporation, Technical Bulletin No. 288, and Cell notes, Issue 10, 2004).

OV-90 = test: ATP depletion cytotoxicity assay 48 hr; format: cell-based, human
Experimental: as §7, §8, §9
Cells were plated at the optimal plating density for that cell line in 96-well plates and allowed to attach overnight. The next day, cells were pre-treated with the inhibitors UO126 or LY294002 (see Tables 18 & 20) for 2 hrs, the medium was removed and replaced with fresh medium containing the appropriate dose of the test item. […] Cells were exposed to these compounds in Roswell Park Memorial Institute (RPMI) medium containing 10% Foetal Calf Serum (FCS) and 2 mM Glutamine at 37° C. and 5% CO2 for 48 hours. There were 3 replicates for each test item concentration.
as §10

[3] = tested on: panel of human tumour-derived cell lines; test: Hoechst 3342 staining (apoptotic cells) in the SRB cell line panel; format: cell-based
Stability / shelf life = format: physicochemical
[4] = tested on: HT-29 (colon adenocarcinoma) tumours; test: HT-29 xenograft in nude mice; format: in vivo, nude mouse
From the text: (§1) Animals were inoculated with a tumour cell suspension on each flank and the tumours were allowed to grow for 16 days.
(§2) These effects are consistent with a transient effect on the liver associated with mild toxicity and reversible liver enlargement. In rodents, this type of effect is usually due to hepatic PPARα activation associated with peroxisome proliferation.

[5] = HT-29 xenograft in nude mice; format: in vivo, nude mouse; conditions: nude, mouse, plasma, intraperitoneal, 25 mg/kg; HT-29 model; 24 hrs post last dose; Day 29
From the text: as §1, §2

A2780 = test: SRB cytotoxicity assay 48 hr; format: cell-based, human; conditions: read-out: IC50 Values After 48 Hrs Exposure
Experimental: as §6

[6] = tested on: PC3 (prostate) xenograft tumours; test: PC3 xenograft in nude mice; format: in vivo, nude mouse
Experimental: (§3) A parallel experiment was carried out using the prostate tumour cell line PC3.
as §2

[7] = PC3 xenograft in nude mice; format: in vivo, nude mouse; conditions: nude, mouse, plasma, intraperitoneal; PC3 model; 25 mg/kg three times weekly; 24 hrs post last dose; Day 29
Experimental: as §3, §2

[8] = PANC-1 xenograft in female nude mice; format: in vivo, nude mouse; conditions: female, nude, mouse, plasma, 25 mg/kg; PANC-1 model; 24 hrs post last dose; Day 88
Experimental: (§4) A further xenograft model was performed using the human pancreatic cell line PANC-1. This tumour is slow growing in vivo. […] For various reasons, animals were lost during the study and the final group sizes were small. […] This experiment is currently being repeated to try to obtain larger group sizes at experimental completion.
(§5) In-life and terminal blood samples taken from the mice were analysed for CXR1002 levels using a validated analytical method. In-life samples averaged 146 μM and terminal blood samples (24 hours post final dose) averaged 474 μM (FIG. 7). Plasma values were higher than the whole blood values. This may be attributed to the duration of dosing. […] Furthermore, the erythrocyte/plasma partitioning coefficient (which measures the amount of drug bound to red cells compared to plasma binding) may contribute to the observed differences.

[9] = tested on: PANC-1 (pancreas) xenograft tumours; test: PANC-1 xenograft in female nude mice; format: in vivo, nude mouse
Experimental: as §4, §5

A375 = test: SRB cytotoxicity assay 48 hr; format: cell-based, human; conditions: read-out: IC50 Values After 48 Hrs Exposure
Experimental: as §6

CYP2C9 = CYP2C9 (Homo sapiens, UniProt P11712); test: Cytochrome P450 isozyme inhibition; format: in vitro ADME; conditions: under the conditions used (unpublished data); read-out: IC50 towards CYP2C9
From the text: There is no evidence that APFO is metabolised in mammals once dissociated to form perfluorooctanoate.

[10] = ATP depletion, 48 hrs, read-out: IC50 1-4 (independent replicates)

Chain of CYP2C9 (P11712 whole entry): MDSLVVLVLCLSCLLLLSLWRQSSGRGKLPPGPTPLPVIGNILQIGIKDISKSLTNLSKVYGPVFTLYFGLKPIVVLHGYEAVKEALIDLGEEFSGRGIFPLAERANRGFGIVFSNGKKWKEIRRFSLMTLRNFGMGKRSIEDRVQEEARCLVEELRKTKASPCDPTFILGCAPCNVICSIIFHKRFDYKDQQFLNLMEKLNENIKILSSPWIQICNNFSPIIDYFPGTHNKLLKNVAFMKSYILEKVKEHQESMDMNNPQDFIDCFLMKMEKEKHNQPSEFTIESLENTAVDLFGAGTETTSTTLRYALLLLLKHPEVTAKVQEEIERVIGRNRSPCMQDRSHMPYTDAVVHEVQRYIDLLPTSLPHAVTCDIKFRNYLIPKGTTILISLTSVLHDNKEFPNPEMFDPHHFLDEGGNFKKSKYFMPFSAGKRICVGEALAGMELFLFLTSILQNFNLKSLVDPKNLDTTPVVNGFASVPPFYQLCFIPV

## O=C(O)C(F)(F)C(F)(F)C(F)(F)C(F)(F)C(F)(F)C(F)(F)C(F)(F)F [CXR1002]
HT1080
  IC50: > 1000 µM
Plasma protein binding
  plasma protein binding: highly plasma protein bound
[1]
  expression of ER stress-regulated proteins: altered expression of ER stress-regulated proteins
Canine Hepatocytes
  IC50: 240 µM
p21^WAF1
  activation of transcription of p21^WAF1: did not activate transcription
U2OS
  IC50: > 1000 µM
CaCo-2
  IC50: 708 ± 159 µM
[2]; 50 mg/week, pancreatic
  On-Study Duration: 35 weeks
[2]; 100 mg/week, colorectal
  On-Study Duration: 20 weeks
[2]; 200 mg/week, anaplastic thyroid, patient remains on study
  On-Study Duration: 22* weeks
[2]; 200 mg/week, cervical, patient remains on study
  On-Study Duration: 22* weeks
[2]; investigator assessment
  best response: stable disease
[2]; one patient with pancreatic cancer
  duration of stable disease: 7 months
H (chondrosarcoma); Example 7, 48 hour, CXR1002 0-1 mM, U0126 fixed 10 μM where combined
  IC50: 817 µM
H (chondrosarcoma); read-out: IC50 1-4 (independent replicates), ATP depletion, 48 hrs
  IC50: 550 µM and 555 µM and 800 µM
H (chondrosarcoma); read-out: IC50 Mean, ATP depletion, 48 hrs
  IC50: 635 µM
MCF-7
  IC50: 276 ± 33.2 µM
PC3
  IC50: 272 ± 40.7 µM
OUMS-27; [10]
  IC50: 800 µM
OUMS-27; Homo sapiens, 48 h, ATP depletion, 48 hrs, read-out: IC50 1-4 (independent replicates)
  IC50: 1000 µM
OUMS-27; Homo sapiens, 48 h, ATP depletion, 48 hrs, read-out: IC50 Mean
  IC50: 900 µM
OUMS-27; Homo sapiens, 48 h, Example 7, 48 hour, CXR1002 0-1 mM, U0126 fixed 10 μM where combined, read-out: IC50
  IC50: 821 µM
OV-90; [10]
  IC50: 670 µM
OV-90; Homo sapiens, OV-90, 48 h, ATP depletion, 48 hrs, read-out: IC50 1-4 (independent replicates)
  IC50: 650 µM
OV-90; Homo sapiens, OV-90, 48 h, ATP depletion, 48 hrs, read-out: IC50 Mean
  IC50: 657 µM
OV-90; Homo sapiens, OV-90, 48 h, Example 7, 48 hour, CXR1002 0-1 mM, U0126 fixed 10 μM where combined, read-out: IC50
  IC50: 714 µM
[3]; 10 μM
  induction of apoptosis: little effect
[3]; 30 μM
  induction of apoptosis: variable responses
[3]; 300 μM
  induction of apoptosis: marked induction of apoptosis
Stability / shelf life
  stability: extremely stable
[4]; 25 mg/kg i.p. three times per week for 28 days
  effect on tumour volumes: anti-tumour effect
[4]; HT-29, 25 mg/kg i.p. three times per week, Day 29
  Absolute Tumour Volume as a Percentage of Saline Control: 49.22%
[4]; HT-29 model
  effect on body weight: No significant compound-dependent effects
  increase in liver weight: up to 2.5 fold
[4]; HT-29 model, 24 hrs post last dose, Day 29
  Terminal / maximum CXR1002 plasma level: 277 µM
[4]; mice bearing HT-29 xenografts
  increase in plasma AST: up to 3.5 fold
  plasma ALT levels: decreased
[4]; tumour-bearing nude mice, HT-29
  plasma glucose and triglyceride levels: slight reductions
[5]
  concentration at 24 h: 277 µM
A2780
  IC50: 238 ± 7.5 µM
[6]; 5, 15 and 25 mg/kg i.p.
  effect on tumours: marked anti-tumour effect
[6]; PC3-tumour bearing mice
  increase in plasma ALT: up to 1.8 fold
[6]; PC3, 25 mg/kg i.p., Day 25
  Absolute Tumour Volume as a Percentage of Saline Control: 19.14%
[6]; PC3 model
  effect on body weight: No marked effects on body weight
  liver weight: increase in liver weight
[6]; PC3 model, 25 mg/kg three times weekly, 24 hrs post last dose, Day 29
  Terminal / maximum CXR1002 plasma level: 281 µM
[6]; mice bearing PC3 xenografts
  increase in plasma AST: up to 3.5 fold
[6]; tumour-bearing nude mice, PC-3
  plasma glucose and triglyceride levels: slight reductions
[7]
  concentration at 24 h: 281 µM
[8]
  concentration at 24 h: 474 µM
[9]; 25 mg/kg, 3 times per week
  tumour growth: substantially delayed tumour growth
[9]; PANC-1, 25 mg/kg 3 times per week, Day 82
  Absolute Tumour Volume as a Percentage of Saline Control: 50.13%
[9]; PANC-1 model, 24 hrs post last dose, Day 88
  Terminal CXR1002 plasma levels: 474 ± 153 µM
[9]; PANC-1 model, in-life samples
  In-life blood CXR1002 level (average): 146 µM
A375
  IC50: 222 ± 21.2 µM
CYP2C9
  IC50: 0.76 µM
